Tested on: NCI/ADR-RES complex spheroid viability
Test: Anticancer human tumor NCI/ADR-RES cell line growth inhibition;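 note: spheroids exposed to compounds for 7 days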;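 for viability, T/C: 100% = DMSO vehicle treated spheroids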
Conditions: for IC50: curve of first compound; for viability, T/C: stronger effect = lower value
How it was run: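 Drug combinations with the LSD1 inhibitor iadademstat tested on tumor cells co-cultured as spheroids with endothelial cells and mesenchymal stem cells. Concentrations descended in half-log increments from clinical Cmax or 10 microM.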

[1] = second compound 0.1 µM, first compound 0.0316 µM
[2] = second compound 0.1 µM, first compound 0.1 µM
[3] = second compound 0.1 µM, first compound 0.316 µM
[4] = second compound 0.1 µM, first compound 1 µM
[5] = second compound 0.1 µM, first compound 3.16 µM
[6] = second compound 0.1 µM, first compound 10 µM
[7] = second compound 0.316 µM, first compound 0.0316 µM
[8] = second compound 0.316 µM, first compound 0.1 µM
[9] = second compound 0.316 µM, first compound 0.316 µM
[10] = second compound 0.316 µM, first compound 1 µM
[11] = second compound 0.316 µM, first compound 3.16 µM
[12] = second compound 0.316 µM, first compound 10 µM
[13] = second compound 1 µM, first compound 0.0316 µM
[14] = second compound 1 µM, first compound 0.1 µM
[15] = second compound 1 µM, first compound 0.316 µM
[16] = second compound 1 µM, first compound 1 µM
[17] = second compound 1 µM, first compound 3.16 µM
[18] = second compound 1 µM, first compound 10 µM
[19] = second compound 3.16 µM, first compound 0.0316 µM
[20] = second compound 3.16 µM, first compound 0.1 µM
[21] = second compound 3.16 µM, first compound 0.316 µM
[22] = second compound 3.16 µM, first compound 1 µM
[23] = second compound 3.16 µM, first compound 3.16 µM
[24] = second compound 3.16 µM, first compound 10 µM
[25] = second compound 10 µM, first compound 0.0316 µM
[26] = second compound 10 µM, first compound 0.1 µM
[27] = second compound 10 µM, first compound 0.316 µM
[28] = second compound 10 µM, first compound 1 µM
[29] = second compound 10 µM, first compound 3.16 µM
[30] = second compound 10 µM, first compound 10 µM
[31] = second compound 0.1 µM, first compound 0.00949 µM
[32] = second compound 0.1 µM, first compound 0.03 µM
[33] = second compound 0.1 µM, first compound 0.0949 µM
[34] = second compound 0.1 µM, first compound 0.3 µM
[35] = second compound 0.316 µM, first compound 0.00949 µM
[36] = second compound 0.316 µM, first compound 0.03 µM
[37] = second compound 0.316 µM, first compound 0.0949 µM
[38] = second compound 0.316 µM, first compound 0.3 µM
[39] = second compound 1 µM, first compound 0.00949 µM
[40] = second compound 1 µM, first compound 0.03 µM
[41] = second compound 1 µM, first compound 0.0949 µM
[42] = second compound 1 µM, first compound 0.3 µM
[43] = second compound 3.16 µM, first compound 0.00949 µM
[44] = second compound 3.16 µM, first compound 0.03 µM
[45] = second compound 3.16 µM, first compound 0.0949 µM
[46] = second compound 3.16 µM, first compound 0.3 µM
[47] = second compound 10 µM, first compound 0.00949 µM
[48] = second compound 10 µM, first compound 0.03 µM
[49] = second compound 10 µM, first compound 0.0949 µM
[50] = second compound 10 µM, first compound 0.3 µM

Compound: CC1(C)CCC(CN2CCN(c3ccc(C(=O)NS(=O)(=O)c4ccc(NCC5CCOCC5)c([N+](=O)[O-])c4)c(Oc4cnc5[nH]ccc5c4)c3)CC2)=C(c2ccc(Cl)cc2)C1 + NC1CCC(NC2CC2c2ccccc2)CC1
- IC50 (second compound 0.1 µM): > 10000 nM
- IC50 (second compound 0.316 µM): > 10000 nM
- IC50 (second compound 1 µM): > 10000 nM
- IC50 (second compound 3.16 µM): > 10000 nM
- IC50 (second compound 10 µM): > 10000 nM
- viability, T/C [1]: 98.7%
- viability, T/C [2]: 101%
- viability, T/C [3]: 93.5%
- viability, T/C [4]: 103%
- viability, T/C [5]: 96.8%
- viability, T/C [6]: 91.3%
- viability, T/C [7]: 91.8%
- viability, T/C [8]: 103%
- viability, T/C [9]: 99.2%
- viability, T/C [10]: 104%
- viability, T/C [11]: 103%
- viability, T/C [12]: 100%
- viability, T/C [13]: 97.2%
- viability, T/C [14]: 108%
- viability, T/C [15]: 102%
- viability, T/C [16]: 114%
- viability, T/C [17]: 102%
- viability, T/C [18]: 100%
- viability, T/C [19]: 99.6%
- viability, T/C [20]: 104%
- viability, T/C [21]: 101%
- viability, T/C [22]: 104%
- viability, T/C [23]: 96.3%
- viability, T/C [24]: 89.9%
- viability, T/C [25]: 84.5%
- viability, T/C [26]: 90%
- viability, T/C [27]: 105%
- viability, T/C [28]: 94.5%
- viability, T/C [29]: 94.3%
- viability, T/C [30]: 85.4%

Compound: CC1COCCN1c1cc(C2(S(C)(=N)=O)CC2)nc(-c2ccnc3[nH]ccc23)n1 (stereo not given) + NC1CCC(NC2CC2c2ccccc2)CC1
- IC50 (second compound 0.1 µM): > 10000 nM
- IC50 (second compound 0.316 µM): > 10000 nM
- IC50 (second compound 1 µM): 8560 nM
- IC50 (second compound 3.16 µM): 7930 nM
- IC50 (second compound 10 µM): 5240 nM
- viability, T/C [1]: 98.9%
- viability, T/C [2]: 104%
- viability, T/C [3]: 105%
- viability, T/C [4]: 95.6%
- viability, T/C [5]: 82.8%
- viability, T/C [6]: 50.5%
- viability, T/C [7]: 101%
- viability, T/C [8]: 98.8%
- viability, T/C [9]: 102%
- viability, T/C [10]: 94.5%
- viability, T/C [11]: 71.8%
- viability, T/C [12]: 55.5%
- viability, T/C [13]: 104%
- viability, T/C [14]: 102%
- viability, T/C [15]: 97.6%
- viability, T/C [16]: 97.5%
- viability, T/C [17]: 84.5%
- viability, T/C [18]: 44.2%
- viability, T/C [19]: 96.4%
- viability, T/C [20]: 96.8%
- viability, T/C [21]: 94.6%
- viability, T/C [22]: 84.4%
- viability, T/C [23]: 68.6%
- viability, T/C [24]: 45%
- viability, T/C [25]: 98.4%
- viability, T/C [26]: 92.7%
- viability, T/C [27]: 89.7%
- viability, T/C [28]: 83.8%
- viability, T/C [29]: 61.3%
- viability, T/C [30]: 34.6%

Compound: CCN(c1cc(-c2ccc(CN3CCOCC3)cc2)cc(C(=O)NCc2c(C)cc(C)[nH]c2=O)c1C)C1CCOCC1 + NC1CCC(NC2CC2c2ccccc2)CC1
- IC50 (second compound 0.1 µM): > 3000 nM
- IC50 (second compound 0.316 µM): > 3000 nM
- IC50 (second compound 1 µM): > 3000 nM
- IC50 (second compound 3.16 µM): > 3000 nM
- IC50 (second compound 10 µM): > 3000 nM
- viability, T/C [31]: 92.4%
- viability, T/C [32]: 92.5%
- viability, T/C [33]: 98.1%
- viability, T/C [34]: 98.1%
- viability, T/C (second compound 0.1 µM, first compound 0.949 µM): 92.8%
- viability, T/C (second compound 0.1 µM, first compound 3 µM): 89.3%
- viability, T/C [35]: 94.6%
- viability, T/C [36]: 97.9%
- viability, T/C [37]: 96.9%
- viability, T/C [38]: 95%
- viability, T/C (second compound 0.316 µM, first compound 0.949 µM): 91.4%
- viability, T/C (second compound 0.316 µM, first compound 3 µM): 81.5%
- viability, T/C [39]: 104%
- viability, T/C [40]: 99.5%
- viability, T/C [41]: 93.8%
- viability, T/C [42]: 99%
- viability, T/C (second compound 1 µM, first compound 0.949 µM): 95.7%
- viability, T/C (second compound 1 µM, first compound 3 µM): 89.2%
- viability, T/C [43]: 89.4%
- viability, T/C [44]: 98%
- viability, T/C [45]: 94%
- viability, T/C [46]: 96%
- viability, T/C (second compound 3.16 µM, first compound 0.949 µM): 87.6%
- viability, T/C (second compound 3.16 µM, first compound 3 µM): 89%
- viability, T/C [47]: 91.9%
- viability, T/C [48]: 89.8%
- viability, T/C [49]: 88.2%
- viability, T/C [50]: 86.1%
- viability, T/C (second compound 10 µM, first compound 0.949 µM): 90.1%
- viability, T/C (second compound 10 µM, first compound 3 µM): 80.9%

Compound: Nc1ncn(C2CC(O)C(CO)S2)c(=O)n1 (stereo not given) + NC1CCC(NC2CC2c2ccccc2)CC1
- IC50 (second compound 0.1 µM): 17.5 nM
- IC50 (second compound 0.316 µM): 12.6 nM
- IC50 (second compound 1 µM): 13.9 nM
- IC50 (second compound 3.16 µM): 8.87 nM
- IC50 (second compound 10 µM): 6.46 nM
- viability, T/C (second compound 0.1 µM, first compound 0.000949 µM): 99.2%
- viability, T/C (second compound 0.1 µM, first compound 0.003 µM): 76.1%
- viability, T/C [31]: 60.2%
- viability, T/C [32]: 41.5%
- viability, T/C [33]: 25.3%
- viability, T/C [34]: 6.6%
- viability, T/C (second compound 0.316 µM, first compound 0.000949 µM): 106%
- viability, T/C (second compound 0.316 µM, first compound 0.003 µM): 79.3%
- viability, T/C [35]: 56.2%
- viability, T/C [36]: 34%
- viability, T/C [37]: 17.1%
- viability, T/C [38]: 6.79%
- viability, T/C (second compound 1 µM, first compound 0.000949 µM): 99.9%
- viability, T/C (second compound 1 µM, first compound 0.003 µM): 80.3%
- viability, T/C [39]: 57%
- viability, T/C [40]: 35%
- viability, T/C [41]: 18.6%
- viability, T/C [42]: 4.76%
- viability, T/C (second compound 3.16 µM, first compound 0.000949 µM): 102%
- viability, T/C (second compound 3.16 µM, first compound 0.003 µM): 66.1%
- viability, T/C [43]: 46.6%
- viability, T/C [44]: 37.1%
- viability, T/C [45]: 17.7%
- viability, T/C [46]: 4.6%
- viability, T/C (second compound 10 µM, first compound 0.000949 µM): 85.1%
- viability, T/C (second compound 10 µM, first compound 0.003 µM): 57.3%
- viability, T/C [47]: 43.7%
- viability, T/C [48]: 31%
- viability, T/C [49]: 13.9%
- viability, T/C [50]: 3.33%

Compound: O=C(C=Cn1cnc(-c2cc(C(F)(F)F)cc(C(F)(F)F)c2)n1)NNc1cnccn1 + NC1CCC(NC2CC2c2ccccc2)CC1
- IC50 (second compound 0.1 µM): 6.5 nM
- IC50 (second compound 0.316 µM): 5.82 nM
- IC50 (second compound 1 µM): 5.77 nM
- IC50 (second compound 3.16 µM): 4.94 nM
- IC50 (second compound 10 µM): 3.46 nM
- viability, T/C (second compound 0.1 µM, first compound 0.00316 µM): 80.1%
- viability, T/C (second compound 0.1 µM, first compound 0.01 µM): 29.1%
- viability, T/C [1]: 17.7%
- viability, T/C [2]: 13.6%
- viability, T/C [3]: 5.76%
- viability, T/C [4]: 2.44%
- viability, T/C (second compound 0.316 µM, first compound 0.00316 µM): 72.3%
- viability, T/C (second compound 0.316 µM, first compound 0.01 µM): 26.2%
- viability, T/C [7]: 18.8%
- viability, T/C [8]: 21.9%
- viability, T/C [9]: 4.73%
- viability, T/C [10]: 1.86%
- viability, T/C (second compound 1 µM, first compound 0.00316 µM): 72.3%
- viability, T/C (second compound 1 µM, first compound 0.01 µM): 27.6%
- viability, T/C [13]: 17.8%
- viability, T/C [14]: 11.6%
- viability, T/C [15]: 8.01%
- viability, T/C [16]: 3.34%
- viability, T/C (second compound 3.16 µM, first compound 0.00316 µM): 65%
- viability, T/C (second compound 3.16 µM, first compound 0.01 µM): 24.6%
- viability, T/C [19]: 15.9%
- viability, T/C [20]: 7.79%
- viability, T/C [21]: 4.6%
- viability, T/C [22]: 2.43%
- viability, T/C (second compound 10 µM, first compound 0.00316 µM): 52.9%
- viability, T/C (second compound 10 µM, first compound 0.01 µM): 20.5%
- viability, T/C [25]: 9.74%
- viability, T/C [26]: 5.15%
- viability, T/C [27]: 3.07%
- viability, T/C [28]: 1.56%

— PubChem BioAssay AID1918955 (Molecular Pharmacology Branch, DTP, NCI, 2023)
